Measured values published in patent US10392368B2, “Pyrazolo and triazolo bicyclic compounds as JAK kinase inhibitors” (THERAVANCE BIOPHARMA R&D IP, LLC, priority 2017, dated 2019).
Where two headings read alike, the source gives them in different places.

Experiments:
[1] = biological target: T1, JAK1 (Homo sapiens, UniProt P23458); assay: Biochemical JAK1 kinase assay (LanthaScreen); conditions: for Ki: read-out: JAK 1 (pKi) (converted)
T1 construct: GST; purchased Life Technologies
Method in brief: (§1)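 TR-FRET readout (520/495 nm) using Tb-labelled pTyr701 antibody after EDTA stop, following 1 h ATP-started phosphorylation of GFP-STAT1 by recombinant GST-JAK. Compounds preincubated 1 h with enzyme and substrate; pIC50 from 4-parameter fit, Cheng-Prusoff gives pKi.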

[2] = biological target: T2, JAK3 (Homo sapiens, UniProt P52333); assay: Biochemical JAK3 kinase assay (LanthaScreen); parameters: GST; purchased Life Technologies; conditions: for Ki: read-out: JAK 3 (pKi) (converted)
T2 sequence (P52333 1-1124): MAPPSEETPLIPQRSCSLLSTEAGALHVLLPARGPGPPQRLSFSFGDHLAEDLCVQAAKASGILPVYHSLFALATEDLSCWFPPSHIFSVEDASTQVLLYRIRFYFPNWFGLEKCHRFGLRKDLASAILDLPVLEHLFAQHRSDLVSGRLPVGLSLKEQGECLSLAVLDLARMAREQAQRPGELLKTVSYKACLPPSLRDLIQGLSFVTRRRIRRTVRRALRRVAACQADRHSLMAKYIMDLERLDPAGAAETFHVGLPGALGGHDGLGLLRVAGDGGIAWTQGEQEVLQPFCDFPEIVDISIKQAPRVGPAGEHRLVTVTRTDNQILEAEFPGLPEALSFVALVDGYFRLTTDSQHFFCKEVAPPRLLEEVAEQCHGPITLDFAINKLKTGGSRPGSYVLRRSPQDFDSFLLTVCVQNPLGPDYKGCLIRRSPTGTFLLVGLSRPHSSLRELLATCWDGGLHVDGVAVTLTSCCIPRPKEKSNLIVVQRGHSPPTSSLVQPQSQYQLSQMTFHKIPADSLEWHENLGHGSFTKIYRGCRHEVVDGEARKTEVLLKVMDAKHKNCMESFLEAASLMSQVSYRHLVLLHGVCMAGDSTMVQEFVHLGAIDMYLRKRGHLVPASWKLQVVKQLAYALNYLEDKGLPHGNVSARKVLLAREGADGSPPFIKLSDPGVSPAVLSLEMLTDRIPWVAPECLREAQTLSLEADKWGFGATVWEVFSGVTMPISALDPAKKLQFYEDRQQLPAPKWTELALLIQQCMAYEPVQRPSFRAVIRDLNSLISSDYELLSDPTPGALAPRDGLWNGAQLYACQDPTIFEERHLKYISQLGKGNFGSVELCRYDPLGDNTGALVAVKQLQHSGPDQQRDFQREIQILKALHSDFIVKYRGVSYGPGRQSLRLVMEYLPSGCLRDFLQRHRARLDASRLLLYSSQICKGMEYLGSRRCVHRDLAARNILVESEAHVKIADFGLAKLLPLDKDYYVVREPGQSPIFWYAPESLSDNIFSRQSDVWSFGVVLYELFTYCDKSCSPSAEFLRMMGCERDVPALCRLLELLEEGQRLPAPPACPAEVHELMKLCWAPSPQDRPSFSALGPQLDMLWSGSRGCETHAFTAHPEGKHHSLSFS
Method in brief: as §1

[3] = test system: IL-2 stimulated pSTAT5 in Tall-1 T cells; assay: Cellular JAK3 potency assay: inhibition of IL-2 stimulated pSTAT5 in Tall-1 T cells; assay type: cell-based, human; conditions: for IC50: Homo sapiens, read-out: Tall-1 (pIC50) (converted)
Method in brief: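 In human Tall-1 T cells, IL-2 (300 ng/ml final, 30 min) drives STAT5 phosphorylation after a 1 h compound pretreatment. Lysates are assayed for pSTAT5 by AlphaLisa, and IC50 derived from signal versus concentration is expressed as pIC50.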

[4] = biological target: T3, JAK2 (Homo sapiens, UniProt O60674); assay: Biochemical JAK2 kinase assay (LanthaScreen); conditions: for Ki: read-out: JAK 2 (pKi) (converted)
T3 construct: GST; purchased Life Technologies
T3 sequence (O60674 whole entry): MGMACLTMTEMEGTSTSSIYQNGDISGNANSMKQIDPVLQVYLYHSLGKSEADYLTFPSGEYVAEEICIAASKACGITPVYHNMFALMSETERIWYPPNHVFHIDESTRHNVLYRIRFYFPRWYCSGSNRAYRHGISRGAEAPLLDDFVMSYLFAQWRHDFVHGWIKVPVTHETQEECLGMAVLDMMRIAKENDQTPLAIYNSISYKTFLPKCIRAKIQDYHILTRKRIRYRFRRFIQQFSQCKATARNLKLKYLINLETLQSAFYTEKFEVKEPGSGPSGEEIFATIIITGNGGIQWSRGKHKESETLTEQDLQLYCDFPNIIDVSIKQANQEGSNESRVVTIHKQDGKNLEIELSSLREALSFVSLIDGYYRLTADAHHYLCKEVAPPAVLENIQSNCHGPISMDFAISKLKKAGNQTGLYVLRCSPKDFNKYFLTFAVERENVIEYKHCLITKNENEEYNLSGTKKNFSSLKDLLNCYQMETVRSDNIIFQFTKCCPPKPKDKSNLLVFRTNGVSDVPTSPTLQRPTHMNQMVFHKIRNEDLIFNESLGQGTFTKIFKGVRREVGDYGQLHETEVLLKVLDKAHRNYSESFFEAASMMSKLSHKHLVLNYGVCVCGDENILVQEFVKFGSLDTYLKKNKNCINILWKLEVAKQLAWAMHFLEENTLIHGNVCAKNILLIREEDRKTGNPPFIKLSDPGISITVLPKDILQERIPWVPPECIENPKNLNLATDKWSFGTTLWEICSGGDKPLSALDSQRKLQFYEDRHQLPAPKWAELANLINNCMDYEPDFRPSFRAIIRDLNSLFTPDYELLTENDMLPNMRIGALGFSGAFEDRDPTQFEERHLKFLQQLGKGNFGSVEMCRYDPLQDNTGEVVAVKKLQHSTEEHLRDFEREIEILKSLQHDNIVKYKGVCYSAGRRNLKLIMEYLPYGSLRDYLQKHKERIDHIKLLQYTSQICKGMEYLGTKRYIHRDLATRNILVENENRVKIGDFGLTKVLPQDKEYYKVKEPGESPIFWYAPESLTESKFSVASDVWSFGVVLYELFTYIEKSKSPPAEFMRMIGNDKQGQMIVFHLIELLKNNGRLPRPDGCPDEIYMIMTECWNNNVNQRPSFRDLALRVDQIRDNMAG
Method in brief: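 GST-tagged recombinant JAK2 pre-incubated 1 h at ambient temperature with compound and GFP-STAT1 peptide in HEPES pH 7.5/MgCl2 buffer, then ATP added for a 1 h reaction with 1% DMSO. TR-FRET read after EDTA and Tb-anti-pSTAT1 (pTyr701) addition; IC50 from 4-parameter fit, converted to pKi by Cheng-Prusoff.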

[5] = biological target: T4, Tyk2 (Homo sapiens, UniProt P29597); assay: Biochemical Tyk2 kinase assay (LanthaScreen); conditions: for Ki: read-out: Tyk 2 (pKi) (converted)
T4 construct: GST; purchased Life Technologies
T4 sequence (P29597 whole entry): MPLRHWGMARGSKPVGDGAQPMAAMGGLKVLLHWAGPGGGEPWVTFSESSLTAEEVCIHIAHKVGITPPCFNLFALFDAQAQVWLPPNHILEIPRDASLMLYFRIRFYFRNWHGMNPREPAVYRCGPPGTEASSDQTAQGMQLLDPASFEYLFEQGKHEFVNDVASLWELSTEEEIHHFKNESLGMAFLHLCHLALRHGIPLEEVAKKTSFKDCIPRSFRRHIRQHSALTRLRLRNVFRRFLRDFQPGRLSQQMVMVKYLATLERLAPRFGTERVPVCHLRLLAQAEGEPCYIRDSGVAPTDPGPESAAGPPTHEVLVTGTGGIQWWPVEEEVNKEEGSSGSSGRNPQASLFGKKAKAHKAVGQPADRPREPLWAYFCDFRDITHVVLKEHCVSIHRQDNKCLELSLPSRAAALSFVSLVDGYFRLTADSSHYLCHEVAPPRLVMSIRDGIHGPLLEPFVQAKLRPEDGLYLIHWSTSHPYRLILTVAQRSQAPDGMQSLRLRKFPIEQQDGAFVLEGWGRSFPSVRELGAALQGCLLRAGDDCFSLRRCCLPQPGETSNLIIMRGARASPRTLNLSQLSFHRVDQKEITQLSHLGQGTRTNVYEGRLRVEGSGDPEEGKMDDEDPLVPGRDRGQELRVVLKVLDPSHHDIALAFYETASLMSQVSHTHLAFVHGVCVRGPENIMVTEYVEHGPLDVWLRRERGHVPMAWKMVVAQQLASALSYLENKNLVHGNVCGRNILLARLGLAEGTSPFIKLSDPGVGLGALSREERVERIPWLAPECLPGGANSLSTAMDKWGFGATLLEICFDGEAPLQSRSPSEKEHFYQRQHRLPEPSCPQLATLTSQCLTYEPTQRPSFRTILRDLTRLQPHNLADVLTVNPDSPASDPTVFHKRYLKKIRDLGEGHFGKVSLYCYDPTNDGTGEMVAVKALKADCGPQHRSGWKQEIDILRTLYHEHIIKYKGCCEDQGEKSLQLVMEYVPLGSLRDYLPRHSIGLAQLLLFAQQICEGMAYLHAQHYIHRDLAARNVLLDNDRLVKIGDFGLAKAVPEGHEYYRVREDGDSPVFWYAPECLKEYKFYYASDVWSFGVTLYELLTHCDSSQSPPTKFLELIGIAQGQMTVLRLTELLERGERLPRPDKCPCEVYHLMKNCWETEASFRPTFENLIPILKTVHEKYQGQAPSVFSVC
Method in brief: as §1

[6] = selectivity: difference of pKi JAK3 and pKi JAK1
[7] = IL-2 stimulated pSTAT5 in Tall-1 T cells
[8] = selectivity JAK3 over JAK1, difference of pKi
[9] = TALL-1, IL-2 stimulated pSTAT5 in Tall-1 T cells

T1 sequence (P23458 whole entry): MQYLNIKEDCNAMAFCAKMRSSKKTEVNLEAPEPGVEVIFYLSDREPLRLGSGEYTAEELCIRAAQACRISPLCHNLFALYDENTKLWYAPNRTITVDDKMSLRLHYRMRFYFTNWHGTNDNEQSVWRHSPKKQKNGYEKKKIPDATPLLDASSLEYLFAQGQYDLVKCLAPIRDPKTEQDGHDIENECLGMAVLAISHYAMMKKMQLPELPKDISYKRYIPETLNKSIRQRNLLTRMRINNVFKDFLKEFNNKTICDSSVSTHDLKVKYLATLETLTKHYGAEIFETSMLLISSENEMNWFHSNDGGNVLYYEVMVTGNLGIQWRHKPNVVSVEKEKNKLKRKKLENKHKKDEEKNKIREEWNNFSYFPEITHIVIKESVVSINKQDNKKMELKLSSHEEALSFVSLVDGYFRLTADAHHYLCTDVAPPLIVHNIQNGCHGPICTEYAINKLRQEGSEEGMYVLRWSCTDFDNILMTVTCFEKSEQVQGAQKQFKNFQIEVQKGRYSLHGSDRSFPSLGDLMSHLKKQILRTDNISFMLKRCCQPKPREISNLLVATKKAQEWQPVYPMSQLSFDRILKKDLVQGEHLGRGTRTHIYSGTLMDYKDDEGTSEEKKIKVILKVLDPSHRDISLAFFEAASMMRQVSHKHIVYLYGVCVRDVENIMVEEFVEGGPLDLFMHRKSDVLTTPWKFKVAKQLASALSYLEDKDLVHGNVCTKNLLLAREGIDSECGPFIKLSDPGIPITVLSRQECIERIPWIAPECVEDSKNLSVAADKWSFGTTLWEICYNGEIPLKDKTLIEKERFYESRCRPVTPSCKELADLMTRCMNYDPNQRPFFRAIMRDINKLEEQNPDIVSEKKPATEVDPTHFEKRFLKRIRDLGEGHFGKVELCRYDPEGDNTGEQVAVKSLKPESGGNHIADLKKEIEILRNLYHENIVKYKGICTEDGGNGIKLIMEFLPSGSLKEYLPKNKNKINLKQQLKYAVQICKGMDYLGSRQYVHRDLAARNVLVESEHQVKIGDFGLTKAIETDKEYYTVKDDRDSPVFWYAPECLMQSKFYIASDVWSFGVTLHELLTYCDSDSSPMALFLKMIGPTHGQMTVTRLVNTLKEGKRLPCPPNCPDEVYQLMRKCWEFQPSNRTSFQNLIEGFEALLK

SMILES: CN(C)C/C=C/C(=O)N1CC(C(C)(C)Oc2cc(-c3ccc(O)cc3)cc3[nH]ncc23)C1 [Compound 3-24]
- JAK 1 (pKi) [1]: E (a pKi value of 7 or below (Ki of 100 nM or above))
- JAK 3 (pKi) [2]: B (a pKi value between 9 and 10 (Ki between 1 nM and 0.1 nM))
- JAK3 (pKi)-JAK1 (pKi) [2, 6]: A (a value of 3 or above)
- Tall-1 (pIC50) [3, 7]: B (a pIC50 value between 6.7 (included) and 7.5 (IC50 between 200 nM and 32 nM))
- JAK 2 (pKi) [4]: E (a pKi value of 7 or below (Ki of 100 nM or above))
- Tyk 2 (pKi) [5]: E (a pKi value of 7 or below (Ki of 100 nM or above))

SMILES: C=CC(=O)N1C2CCC1CC(Nc1cc(-c3ccc(O)cc3)cc3[nH]ncc13)C2 (stereo not drawn) [Compound 10-7]
- JAK 1 (pKi) [1]: E (a pKi value of 7 or below (Ki of 100 nM or above))
- JAK 3 (pKi) [2]: B (a pKi value between 9 and 10 (Ki between 1 nM and 0.1 nM))
- JAK3 (pKi)-JAK1 (pKi) [2, 8]: A (a value of 3 or above)
- Tall-1 (pIC50) ([3]; IL-2 stimulated pSTAT5, Tall-1 T cells): B (a pIC50 value between 6.7 (included) and 7.5 (IC50 between 200 nM and 32 nM))
- JAK 2 (pKi) [4]: D (a pKi value between 7 and 8 (Ki between 100 nM and 10 nM))
- Tyk 2 (pKi) [5]: E (a pKi value of 7 or below (Ki of 100 nM or above))

SMILES: CN1CCC[C@H]1/C=C/C(=O)N1CC(COc2cc(-c3ccc(O)cc3)cc3[nH]ncc23)C1 [Compound 3-115]
- Ki [1]: > 0.1 µM
- Ki [2]: 0.0001 to 0.001 µM
- JAK3 (pKi)-JAK1 (pKi) [2, 6]: A (a value of 3 or above)
- IC50 [3, 9]: 0.0316 to 0.2 µM
- Ki [4]: 0.0001 to 0.001 µM
- Ki [5]: > 0.1 µM

SMILES: CN(C)C/C=C/C(=O)N1CC(F)(COc2nc(-c3ccc(O)c(F)c3)cc3[nH]ncc23)C1 [Compound 3-48]
- JAK 1 (pKi) [1]: D (a pKi value between 7 and 8 (Ki between 100 nM and 10 nM))
- JAK 3 (pKi) [2]: A (a pKi value≥10 (Ki≤0.1 nM))
- JAK3 (pKi)-JAK1 (pKi) [2, 6]: A (a value of 3 or above)
- Tall-1 (pIC50) [3, 7]: A (a pIC50 value≥7.5 (IC50≤32 nM))
- JAK 2 (pKi) [4]: D (a pKi value between 7 and 8 (Ki between 100 nM and 10 nM))
- Tyk 2 (pKi) [5]: E (a pKi value of 7 or below (Ki of 100 nM or above))

SMILES: C=CC(=O)N1CC[C@H](Oc2cc(-c3ccc(O)cc3)cc3[nH]nc(COC)c23)C1 [Compound 1-22]
- Ki [1]: > 0.1 µM
- Ki [2]: < 0.0001 µM
- JAK3 (pKi)-JAK1 (pKi) [2, 6]: A (a value of 3 or above)
- IC50 [3, 9]: 0.0316 to 0.2 µM
- Ki [4]: 0.01 to 0.1 µM
- Ki [5]: > 0.1 µM

SMILES: CN(C)C/C=C/C(=O)N1CC(COc2nc(-c3ccc(O)c(F)c3)cc3[nH]ncc23)C1 [Compound 3-36]
- Ki [1]: > 0.1 µM
- Ki [2]: < 0.0001 µM
- JAK3 (pKi)-JAK1 (pKi) [2, 6]: A (a value of 3 or above)
- IC50 [3, 9]: 0.0316 to 0.2 µM
- Ki [4]: > 0.1 µM
- Ki [5]: > 0.1 µM

SMILES: CN(C)C/C=C/C(=O)N1CCC(C)(Oc2cc(-c3ccc(O)c(Cl)c3)cc3[nH]ncc23)CC1 [Compound 6-4]
- Ki [1]: > 0.1 µM
- Ki [2]: < 0.0001 µM
- JAK3 (pKi)-JAK1 (pKi) [2, 8]: A (a value of 3 or above)
- IC50 ([3]; TALL-1, IL-2 stimulated pSTAT5, Tall-1 T cells): 0.0316 to 0.2 µM
- Ki [4]: 0.01 to 0.1 µM
- Ki [5]: > 0.1 µM

SMILES: C=CC(=O)N1CC[C@H](Oc2cc(-c3ccc(O)cc3)cc3[nH]nc(NC)c23)C1 [Compound 1-21]
- Ki [1]: > 0.1 µM
- Ki [2]: 0.0001 to 0.001 µM
- JAK3 (pKi)-JAK1 (pKi) [2, 6]: A (a value of 3 or above)
- IC50 [3, 9]: 0.0316 to 0.2 µM
- Ki [4]: > 0.1 µM
- Ki [5]: > 0.1 µM

SMILES: C=CC(=O)N1CC[C@H](COc2cc(-c3ccc(O)c(F)c3)nc3[nH]ncc23)C1 [Compound 2-17]
- JAK 1 (pKi) [1]: E (a pKi value of 7 or below (Ki of 100 nM or above))
- JAK 3 (pKi) [2]: A (a pKi value≥10 (Ki≤0.1 nM))
- JAK3 (pKi)-JAK1 (pKi) [2, 6]: A (a value of 3 or above)
- Tall-1 (pIC50) [3, 7]: B (a pIC50 value between 6.7 (included) and 7.5 (IC50 between 200 nM and 32 nM))
- JAK 2 (pKi) [4]: E (a pKi value of 7 or below (Ki of 100 nM or above))
- Tyk 2 (pKi) [5]: E (a pKi value of 7 or below (Ki of 100 nM or above))
